Literature values, collected in patent US7393545B2, “Lipstatin derivative—soluble fiber tablets” (priority 1999, dated 2008).

Legend:
[1] = diet-induced obese rats, 27 mg/kg/day
pancreatic lipase = biological target: T1, pancreatic lipase (Homo sapiens, UniProt P16233)
T1 sequence (P16233 17-465): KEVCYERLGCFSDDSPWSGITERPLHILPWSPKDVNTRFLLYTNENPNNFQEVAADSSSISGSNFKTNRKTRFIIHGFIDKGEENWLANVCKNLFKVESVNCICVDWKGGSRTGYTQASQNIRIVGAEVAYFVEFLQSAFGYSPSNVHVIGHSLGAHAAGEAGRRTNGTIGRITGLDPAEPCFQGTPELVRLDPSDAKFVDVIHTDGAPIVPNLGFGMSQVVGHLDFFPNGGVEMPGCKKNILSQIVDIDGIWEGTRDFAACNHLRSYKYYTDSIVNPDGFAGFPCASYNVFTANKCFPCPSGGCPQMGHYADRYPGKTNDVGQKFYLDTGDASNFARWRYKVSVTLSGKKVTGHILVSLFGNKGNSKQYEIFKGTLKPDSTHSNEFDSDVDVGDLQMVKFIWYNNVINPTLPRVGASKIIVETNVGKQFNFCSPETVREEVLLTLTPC

[2] = in vivo
[3] = first year of a 2 year study, 228 patients, 3× daily, mildly hypocaloric diet
[4] = placebo-controlled clinical studies, over 5000 obese patients

CCCCCCCCCCC[C@@H](C[C@@H]1OC(=O)[C@H]1CCCCCC)OC(=O)[C@H](CC(C)C)NC=O [Orlistat, tetrahydrolipostatin]
decrease in carcass fat [1]: 54 g | decrease in liver weight [1]: 13% | increase in large intestine weight [1]: 38% | increase in small intestine weight [1]: 27% | loss of body weight [1]: 65 g | retroperitoneal (RP) pad weight [1]: decreases | fat absorption ([1]; decreased from 93-94%): 17-19% | inhibition of pancreatic lipase (pancreatic lipase): potent and selective inhibitor | more weight lost than the placebo controlled group [3]: 65% | share of patients having lost >10% of their bodyweight [3]: ⅓ | patients who lost 10% or more body weight compared to placebo and diet alone (first year of a two year study, moderately reduced calorie diet): 3 times | adverse side-effects [4]: no major adverse side-effects | weight loss [4]: significant weight loss | fat contained in food whose absorption is prevented [2]: about one third
